Experimental data reported in patent publication US10709743B2, “Pharmaceutical wound healing composition” (Council of Scientific and Industrial Research, priority 2015, dated 2020).
Several values for one entry are separate records, joined by “and”; a condition that tells them apart may be missing. Equal entries are not always repeated.

Columns and labels:
Wister rats (Male) [1] = test: Incision wound model, wound size measurement; format: in vivo; design: unit not given here; details: average of six animals
Procedure: The animals were housed in a standard individual metal cages and room was maintained at 22±1° C. with an alternating 12 h light-dark cycle. Food and water were provided ad libitum. All the experiments on animals were conducted after obtaining permission from Institutional Animal Ethical Committee of the Institute.
Animals were divided into two groups (six animals each).
All animals of two groups were anesthetized with an aesthetic ether, and a paravertebral long incision of 4.4 cm length were made through the skin and cutaneous muscle at a distance about 1.5 cm from the middle on right side of the depilated back.
All groups (A and B) of animals received sufficient amount of formulation applied externally (as depicted in table No. 2). All the test formulations were applied once a day for 10 days starting from the day of incision. Wound-healing property was evaluated by wound length and wound closure time.
Every alternative days wound size contraction was measured. By placing transparent blotting paper carefully on the wounded part of rats marking were done by permanent marker and size of reduction in wound noted.

Wister rats (Male) [2] = test: Incision wound model, wound size measurement; format: in vivo; design: unit not given here; details: individual animals SR NO 1-6, applied once a day
[3] = cited from earlier work

Substance	wound size AVG (Wister rats (Male) [1]; DAY 2)	wound size AVG (Wister rats (Male) [1]; DAY 10)	wound size AVG (Wister rats (Male) [1]; DAY-4)	wound size AVG (Wister rats (Male) [1]; DAY-6)	wound size AVG (Wister rats (Male) [1]; DAY-8)	wound size (Wister rats (Male) [2]; DAY 2)	wound size (Wister rats (Male) [2]; DAY 10)	wound size (Wister rats (Male) [2]; DAY-4)	wound size (Wister rats (Male) [2]; DAY-6)	wound size (Wister rats (Male) [2]; DAY-8)	scavenging of hydroxyl, superoxide and DPPH radicals ([3]; ESR and ultraviolet spectrophotometry)	antioxidative activity on the peroxidation of linoleic acid ([3]; linoleic acid system)
Sericin [Group C]	26.83	6.5	24.33	23.33	16.33	26 (2×) and 24 and 25 and 30 (2×)	9 and 6 (3×) and 7 and 5	21 and 23 (2×) and 27 and 28 and 24	20 and 22 (2×) and 25 and 27 and 24	18 and 16 (3×) and 17 and 15		
silk sericin											strong scavenging capacity	potent antioxidative activity
